In one test the test system is T-47D cells. In words: Caspase cascade activation (N-(Ac-DEVD)-N'-ethoxycarbonyl-R110 fluorogenic substrate) in T-47D cells. Conditions: 48 h incubation; for pEC50: Homo sapiens, T47D, caspase activation potency, read-out: T47 EC50; for T47 Ratio 48 hr: caspase activity: ratio of net RFU of test compound to control. It counts as cell-based, Human. How it is done:
(§1) Human breast cancer cell lines T-47D and ZR-75-1 were grown according to media component mixtures designated by American Type Culture Collection +10% FCS (Invitrogen Corporation, Life Technologies division), in a 5% CO2-95% humidity incubator at 37° C. T-47D and ZR-75-1 cells were maintained at a cell density between 50 and 80% confluency at a cell density of 0.1 to 0.6×10^6 cells/ml. Cells were harvested at 600× g and resuspended at 0.65×10^6 cells/ml into appropriate media +10% FCS. An aliquot of […] of cells was added to a well of a […] microtiter plate containing 2.5 μl of a 10% DMSO in RPMI-1640 media solution containing 0.16 to 100 μM of 4-(3-methoxyanilino)-2-(2-pyridinyl)-6-(trifluoromethyl)pyrimidine or other test compound (0.016 to 10 μM final). An aliquot of 22.5 μl of cells was added to a well of a 384-well microtiter plate containing 2.5 μl of a 10% DMSO in RPMI-1640 media solution without test compound as the control sample. The samples were mixed by agitation and then incubated at 37° C. for 48 h in a 5% CO2-95% humidity incubator. After incubation, the samples were removed from the incubator and 25 μl of a solution containing 14 μM of N-(Ac-DEVD)-N′-ethoxycarbonyl-R110 fluorogenic substrate (Cytovia, Inc.; WO99/18856), 20% sucrose (Sigma), 20 mM DTT (Sigma), 200 mM NaCl (Sigma), 40 mM Na PIPES buffer pH 7.2 (Sigma), and 500 μg/ml lysolecithin (Calbiochem) was added. The samples were mixed by agitation and incubated at room temperature. Using a fluorescent plate reader (Model SpectraMax Gemini, Molecular Devices), an initial reading (T=0) was made approximately 1-2 min after addition of the substrate solution, employing excitation at 485 nm and emission at 530 nm, to determine the background fluorescence of the control sample. After the 3 h incubation, the samples were read for fluorescence as above (T=3 h).
(§2) The Relative Fluorescence Unit values (RFU) were used to calculate the sample readings as follows:
(§3) RFU(T=3h)−Control RFU(T=0)=Net RFU(T=3h)
(§4) The activity of caspase cascade activation was determined by the ratio of the net RFU value for 4-(3-methoxyanilino)-2-(2-pyridinyl)-6-(trifluoromethyl)pyrimidine or other test compound to that of control samples. The EC50 (nM) was determined by a sigmoidal dose-response calculation (Prism 2.0, GraphPad Software Inc.).

The test system of another test is ZR-75-1 cells. In words: Caspase cascade activation (N-(Ac-DEVD)-N'-ethoxycarbonyl-R110 fluorogenic substrate) in ZR-75-1 cells. It counts as cell-based, Human. Conditions: ZR-75-1, 48 h incubation; for pEC50: Homo sapiens, caspase activation potency; for ZR Ratio 48 hr: caspase activity: ratio of net RFU of test compound to control. How it is done:
as §1, §2, §3, §4

pEC50: −log10 of the molar value.

The pEC50 is −log10 of the EC50, conventionally taken in molar units. For `COc1ccc(OC)c(Nc2cc(C(F)(F)F)nc(-c3cccnc3)n2)c1` [Example 38, 4-(2,5-Dimethoxyanilino)-2-(3-pyridinyl)-6-(trifluoromethyl)pyrimidine], in the test with T-47D cells, the negative logarithm of the EC50 (pEC50) is 7.72 and the “T47 Ratio 48 hr” value was determined as 8.8. Besides, in the test on ZR-75-1 cells, the negative logarithm of the EC50 (pEC50) is 7.16 and the “ZR Ratio 48 hr” value was 12.4.
With `COc1cccc(Nc2cc(C(F)(F)F)nc(-c3ccncc3)n2)c1` [Example 41, 4-(3-Methoxyanilino)-2-(4-pyridinyl)-6-(trifluoromethyl)pyrimidine], in the test on T-47D cells, the pEC50 was 6.28 and the “T47 Ratio 48 hr” value turned out to be 7.5. In the test on ZR-75-1 cells, the pEC50 was under 5.30 and the “ZR Ratio 48 hr” value worked out at 1.6.
Turning to `COc1ccc(OC)c(Nc2cc(C(F)(F)F)nc(-c3ccncc3)n2)c1` [Example 42, 4-(2,5-Dimethoxyanilino)-2-(4-pyridinyl)-6-(trifluoromethyl)pyrimidine], in the test on T-47D cells, the pEC50 is 7.37 and the “T47 Ratio 48 hr” value is recorded as 5.8. Further, in the test with ZR-75-1 cells, the pEC50 was 6.84 and the “ZR Ratio 48 hr” value amounted to 2.5.
As for `COCc1cc(Nc2cccc(OC)c2)nc(-c2csc(C)n2)n1` [Example 44, 4-(3-Methoxyanilino)-6-(methoxymethyl)-2-(2-methyl-1-3-thiazol-4-yl)pyrimidine], in the test with T-47D cells, the pEC50 was under 5.30 and the “T47 Ratio 48 hr” value is 1.6. In the test with ZR-75-1 cells, the pEC50 is under 5.30 and the “ZR Ratio 48 hr” value worked out at 1.9.
`COCc1cc(Nc2cc(OC)ccc2OC)nc(-c2csc(C)n2)n1` [Example 45, 4-(2,5-Dimethoxyanilino)-6-(methoxymethyl)-2-(2-methyl-1-3-thiazol-4-yl)pyrimidine]: in the test on T-47D cells, the pEC50 was 6.48 and the “T47 Ratio 48 hr” value was determined as 21.6. In the test on ZR-75-1 cells, the pEC50 was 6.41 and the “ZR Ratio 48 hr” value was found to be 17.3.
For `COc1cccc(Nc2cc(N3CCOCC3)nc(-c3ccccc3)n2)c1` [Example 46, 6-Morpholino-4-(3-methoxyanilino)-2-phenyl-pyrimidine] the same measures were under 5.30, 1.5, under 5.30 and 1.4.
`COc1ccc(Cl)c(Nc2cc(C(F)(F)F)nc(-c3cccnc3)n2)c1` [Example 50, 4-(2-Chloro-5-methoxyanilino)-2-(3-pyridinyl)-6-(trifluoromethyl)pyrimidine]: in the test with T-47D cells, the pEC50 is 6.76 and the “T47 Ratio 48 hr” value is recorded as 10. Moreover, in the test on ZR-75-1 cells, the pEC50 was 6.49 and the “ZR Ratio 48 hr” value was determined as 5.3.
Regarding `COc1ccc(C)c(Nc2cc(C(F)(F)F)nc(-c3cccnc3)n2)c1` [Example 51, 4-(5-Methoxy-2-methylanilino)-2-(3-pyridinyl)-6-(trifluoromethyl)pyrimidine], in the test on T-47D cells, the pEC50 was 7.54 and the “T47 Ratio 48 hr” value worked out at 11. In addition, in the test with ZR-75-1 cells, the pEC50 was 7.25 and the “ZR Ratio 48 hr” value is on record as 5.9.
`COc1ccc(Cl)c(Nc2cc(C)nc(-c3ccccn3)n2)c1` [Example 52, 4-(2-Chloro-5-methoxyanilino)-6-methyl-2-(2-pyridinyl)pyrimidine]: in the test with T-47D cells, the pEC50 was 6.97 and the “T47 Ratio 48 hr” value was 20.9. In the test on ZR-75-1 cells, the pEC50 was 7.01 and the “ZR Ratio 48 hr” value is 7.2.
In the same order, the values of `COc1ccc(C)c(Nc2cc(C)nc(-c3ccccn3)n2)c1` [Example 53, 4-(5-Methoxy-2-methylanilino)-6-methyl-2-(2-pyridinyl)pyrimidine] are 6.94, 20.4, 6.22 and 6.6.
For `COc1ccc(Cl)c(Nc2cc(C(F)(F)F)nc(-c3ccncc3)n2)c1` [Example 54, 4-(2-Chloro-5-methoxyanilino)-2-(4-pyridinyl)-6-(trifluoromethyl)pyrimidine], in the test with T-47D cells, the pEC50 was 7.00 and the “T47 Ratio 48 hr” value was determined as 10.5. Besides, in the test on ZR-75-1 cells, the pEC50 was 7.00 and the “ZR Ratio 48 hr” value was 5.9.
Turning to `COc1ccc(C)c(Nc2cc(C(F)(F)F)nc(-c3ccncc3)n2)c1` [Example 55, 4-(5-Methoxy-2-methylanilino)-2-(4-pyridinyl)-6-(trifluoromethyl)pyrimidine], in the test on T-47D cells, the pEC50 was 7.68 and the “T47 Ratio 48 hr” value is 8.4. Also, in the test on ZR-75-1 cells, the pEC50 was 7.74 and the “ZR Ratio 48 hr” value stood at 7.1.
`Cn1cc(Br)c(-c2cccc(Nc3cc(C(F)(F)F)nc(-c4cccnc4)n3)c2)n1` [Example 58, 4-[3-(4-Bromo-1-methyl-1H-pyrazol-3-yl)anilino]-2-(3-pyridinyl)-6-(trifluoromethyl)pyrimidine]: in the test on T-47D cells, the pEC50 was under 5.30 and the “T47 Ratio 48 hr” value was 1.5. In the test on ZR-75-1 cells, the pEC50 is under 5.30 and the “ZR Ratio 48 hr” value turned out to be 1.1.
With `Cc1nccc(-c2cccc(Nc3cc(C(F)(F)F)nc(-c4cccnc4)n3)c2)n1` [Example 59, 4-[3-(2-Methyl-pyrimidin-4-yl)anilino]-2-(3-pyridinyl)-6-(trifluoromethyl)pyrimidine], in the test with T-47D cells, the negative-log EC50 (pEC50) was under 5.30 and the “T47 Ratio 48 hr” value is recorded as 1.6. Besides, in the test on ZR-75-1 cells, the pEC50 was under 5.30 and the “ZR Ratio 48 hr” value is recorded as 1.1.
With `FC(F)(F)c1cc(Nc2cccc(-c3ccccc3)c2)nc(-c2cccnc2)n1` [Example 60, 4-(3-Phenylanilino)-2-(3-pyridinyl)-6-(trifluoromethyl)pyrimidine], in the test with T-47D cells, the pEC50 was under 5.30 and the “T47 Ratio 48 hr” value is 1.8. Besides, in the test on ZR-75-1 cells, the pEC50 was under 5.30 and the “ZR Ratio 48 hr” value stood at 1.4.
In the case of `O=[N+]([O-])c1cccc(-c2cccc(Nc3cc(C(F)(F)F)nc(-c4cccnc4)n3)c2)c1` [Example 61, 4-[3-(3-Nitrophenyl)anilino]-2-(3-pyridinyl)-6-(trifluoromethyl)pyrimidine], in the test with T-47D cells, the pEC50 is under 5.30 and the “T47 Ratio 48 hr” value came to 1.8. Further, in the test with ZR-75-1 cells, the pEC50 is under 5.30 and the “ZR Ratio 48 hr” value is listed as 1.2.
Consider `Fc1c(F)c(F)c(Oc2cccc(Nc3cc(C(F)(F)F)nc(-c4cccnc4)n3)c2)c(F)c1F` [Example 62, 4-[3-(2,3,4,5,6-Pentafluorophenoxy)anilino]-2-(3-pyridinyl)-6-(trifluoromethyl)pyrimidine], for which, in the test on T-47D cells, the pEC50 is under 5.30 and the “T47 Ratio 48 hr” value came to 1.6. For the same compound, in the test with ZR-75-1 cells, the pEC50 was under 5.30 and the “ZR Ratio 48 hr” value came to 1.3.
As for `COc1ccc(OC)c(Nc2cc(C(F)(F)F)nc(-c3ccccn3)n2)c1` [Example 63, 4-(2,5-Dimethoxyanilino)-2-(2-pyridinyl)-6-(trifluoromethyl)pyrimidine], in the test with T-47D cells, the pEC50 is 7.74 and the “T47 Ratio 48 hr” value was 8.9. In the test with ZR-75-1 cells, the pEC50 is 7.37 and the “ZR Ratio 48 hr” value is listed as 9.6.
For the compound `O=S(=O)(c1ccccc1)c1cccc(Nc2cc(C(F)(F)F)nc(-c3cccnc3)n2)c1` [Example 65, 4-[3-(Phenylsulfone)anilino]-2-(3-pyridinyl)-6-(trifluoromethyl)pyrimidine], in the test on T-47D cells, the pEC50 was under 5.30 and the “T47 Ratio 48 hr” value is on record as 1.7. In addition, in the test on ZR-75-1 cells, the pEC50 was under 5.30 and the “ZR Ratio 48 hr” value is 1.7.
As to `O=C(Nc1ccccc1)c1cccc(Nc2cc(C(F)(F)F)nc(-c3cccnc3)n2)c1` [Example 66, 4-[3-(N-phenylamide)anilino]-2-(3-pyridinyl)-6-(trifluoromethyl)pyrimidine], in the test with T-47D cells, the pEC50 was under 5.30 and the “T47 Ratio 48 hr” value was 1.2. In the test on ZR-75-1 cells, the pEC50 was under 5.30 and the “ZR Ratio 48 hr” value was found to be 0.9.

(Values after patent US6716851B2, “Substituted 2-aryl-4-arylaminopyrimidines and analogs as activators or caspases and inducers of apoptosis and the use thereof” (Cytovia, Inc., priority 2000, dated 2004).)
